{"source": "patent US20170065500A1", "about": "“Activation of Hydrogen Peroxide” (Revlon Consumer Products Corporation, priority 2015, published 2017)", "key": {"S. epidermidis": {"system": "S. epidermidis", "assay": "Bacterial colonies on agar petri dish treated with hydrogen peroxide alone and with UV light", "type": "cell-based", "conditions": "+ 265 nm UV light, 15 minutes", "procedure": "(§1) The bacterial (organism) was plated on a standard agar petri dish and allowed to grow. The colonies were treated with hydrogen peroxide alone and with UV light for 15 minutes. The light growth means light growth is visable but not as fully developed colonies. Heavy growth was fully developed colonies to numerous to count."}, "C. xerosis": {"system": "C. xerosis", "assay": "Bacterial colonies on agar petri dish treated with hydrogen peroxide alone and with UV light", "type": "cell-based", "conditions": "+ 265 nm UV light, 15 minutes", "procedure": "as §1"}}, "data": [{"smiles": "OO", "note": "[Hydrogen peroxide]", "values": [{"measurement": "bacterial growth after treatment", "setting": "S. epidermidis", "result": "Very"}, {"measurement": "bacterial growth after treatment", "setting": "C. xerosis", "result": "No"}]}]}
